# Assay results reported in patent US11452704B2, “Prevention and treatment of muscle wasting with ketone supplementation” (UNIVERSITY OF SOUTH FLORIDA, priority 2017, dated 2022).
# Key:
# [1] = system: anorexia induced by catabolic/atrophy/cachexic stimulus (LPS); assay: LPS-induced anorexia, food intake (Example 5); format: in vivo; conditions: 10 mg/kg LPS i.p.; one-time dose 4 mL/kg intragastric gavage vs water; FIG. 4A-B
# Protocol: FIG. 4A depicts the difference in anorexia symptoms following Lipopolysaccharide administration with treatment with control or ketone supplementation.
# FIG. 4B depicts the difference in caloric intake following Lipopolysaccharide administration with treatment with control or ketone supplementation.
# FIG. 4A-B depicts weight matched animals who were administered 10 mg/kg LPS intraperitoneally. After intraperitoneal LPS injection, 4 mL/kg of water (n=4) or R/S 1,3 Butanediol Acetoacetate Diester (Ketone Diester; n=5) were intragastrically gavaged into animals. Food Intake was tracted to determine if a one-time does of Ketone Diester was able to reduce anorexia experiences post catabolic/atrophy/cachexic stimulus (10 mg/kg LPS intraperitoneally).
# cancer cachexia (VM-M3) = assay: Cancer cachexia (VM-M3), skeletal muscle weight as ratio to baseline bodyweight (Example 7); format: in vivo; conditions: ketone diester in standard diet food at 30% by weight; 21 days post cancer injection; vs cancer on standard diet; FIG. 6A-B
# Description: FIG. 6A depicts the difference in skeletal muscle weight following cancer cachexia administration (VM-M3) with control or ketone supplementation.
# FIG. 6B depicts the difference in skeletal muscle weight following cancer cachexia administration (VM-M3) with control or ketone supplementation.
# FIG. 6A-B depict weight matched animals who were split into 3 groups 1) Animals without cancer injected with vehicle on standard diet (Sham; n=11), 2) animals with cancer on standard diet (n=11), and 3) animals with cancer with ketone diester incorporated into the standard diet food at 30% by weight (n=11). Animals bodyweight was measured at baseline. Cancer groups were assessed in a validated model of cancer cachexia. At 21 days post vehicle or cancer injection, tissue were harvest and weighed. Skeletal Muscle weight was set as a ratio to baseline bodyweight to determine the differences in skeletal muscle tissue as compared to set pre-cancer timepoint.
# [2] = system: cancer induced tissue wasting (muscle and fat), VM-M3 model of metastatic cancer; assay: VM-M3 model of metastatic cancer: muscle mass as ratio of total calories consumed (Example 2); format: in vivo, VM/Dk animals; conditions: with standard diet, vs standard diet or ketogenic diet; 21 days post-cancer implantation; FIG. 1
# Description: FIG. 1 depicts ratios of muscle mass to amount of calories consumed within a cancer cachexia VM-M3 modeling system, specifically with subjects having been fed standard diet, ketogenic diet, and ketone diester.
# Taking a model system of cancer induced tissue wasting (muscle and fat), R,S 1,3 butanediol diacetoacetate+standard diet, ketogenic diet, and standard diet were applied. VM/Dk animals were matched for sex, age, and bodyweight to ensure controlled groups. Animals were implanted with VM-M3 cell in the left flank to create the VM-M3 model of metastatic cancer. Once implanted, primary tumor forms at site of implantation, and then cells metastasize to all major organ systems that results in tissue wasting. Animals were harvested at 21 days post-cancer implantation to evaluate tissue wasting. […] This confirms that R,S 1,3 butanediol diacetoacetate is an anti-catabolic/anti-tissue wasting compound.
# [3] = system: tissue catabolism/atrophy/cachexia that is induced by LPS; assay: LPS-induced catabolism, single gavage, bodyweight tracked for 2 weeks (Example 4); format: in vivo, VM/Dk mice
# Description: FIG. 3A depicts acute percent bodyweight changes that accompany Lipopolysaccharide after treatment with control or ketone supplementation in VM/Dk mice.
# FIG. 3B depicts acute bodyweight changes that accompany Lipopolysaccharide after treatment with control or ketone supplementation in VM/Dk mice.
# FIG. 3C depicts chronic percent bodyweight changes that accompany Lipopolysaccharide after treatment with control or ketone supplementation in VM/Dk mice.
# FIG. 3D depicts the difference in bodyweight with control treatment at baseline versus each day following Lipopolysaccharide treatment.
# FIG. 3E depicts the difference in bodyweight with ketone supplement treatment at baseline versus each day following Lipopolysaccharide treatment.
# FIGS. 3A-E depict results from Weight matched animals who were administered 10 mg/kg LPS intraperitoneally. After intraperitoneal LPS injection, 4 mL/kg of water (n=4) or R/S 1,3 Butanediol Acetoacetate Diester (Ketone Diester; n=5) were intragastrically gavaged into animals one time. Bodyweight and food intake were tracked for 2 weeks post LPS administration. […] FIG. 3D-E depicts animals administered water gavage post LPS were not able to recovery to baseline bodyweight levels until 11 days post LPS administration.
# [4] = system: tissue catabolism/atrophy/cachexia that is induced by LPS; assay: LPS-induced catabolism, pair fed animals, multiple treatments (Example 6); format: in vivo
# Protocol: FIG. 5A depicts the difference in bodyweight following Lipopolysaccharide administration with multiple treatments with control or ketone supplementation with calories controlled across groups.
# FIG. 5B depicts the difference in percent bodyweight following Lipopolysaccharide administration with multiple treatments with control or ketone supplementation with calories controlled across groups.
# FIG. 5A-B depicts weight matched animals who were administered 10 mg/kg LPS intraperitoneally. After intraperitoneal LPS injection, 4 mL/kg of water (n=4) or R/S 1,3 Butanediol Acetoacetate Diester (Ketone Diester; n=4) were intragastrically gavaged into animals. Animals were pair fed to ensure calories were equivalent between groups to remove influence of caloric intake on tissue catabolism/atrophy/cachexia. […] This effect was retained for a minimum of 2 days following catabolic/atrophy/cachexia stimulus (10 mg/kg LPS intraperitoneal). The ability of Ketone Diester to attenuate catabolism was independent of caloric intake/anorexia induced by LPS.
compound,measurement,setting,value
"CC(=O)CC(=O)OCCC(C)OC(=O)CC(C)=O (stereo not shown) [Ketone Diester, R/S 1,3 Butanediol Acetoacetate Diester]","anorexia (food intake, caloric intake) following LPS",[1],significantly reduced the anorexia
same,Gastrocnemius catabolism/atrophy/cachexia (muscle weight / baseline bodyweight),cancer cachexia (VM-M3),significantly attenuated
same,Quadricep catabolism/atrophy/cachexia (muscle weight / baseline bodyweight),cancer cachexia (VM-M3),significantly attenuated
same,percentage of muscle mass as a ratio of total calories consumed (Quad/Carcass/Absolute calories consumed),[2],substantially higher percentage of muscle mass compared to the amount of calories consumed
same,bodyweight versus baseline on each day following LPS,"[3]; 10 mg/kg LPS i.p., 4 mL/kg gavage, FIG. 3E (water control recovered only at 11 days)",did not significantly reduced in bodyweight
same,attenuation of tissue catabolism/atrophy/cachexia induced by LPS,"[3]; 10 mg/kg LPS i.p., 4 mL/kg intragastric gavage one time, within 1st 24 hour post LPS, FIG. 3A",46%
same,attenuation of percentage of tissue catabolism/atrophy/cachexia induced by LPS,"[3]; 10 mg/kg LPS i.p., 4 mL/kg intragastric gavage one time, within 1st 24 hours post LPS, FIG. 3B",48%
same,chronic tissue catabolism (percent bodyweight change) compared to control,"[3]; multi-weeks post-LPS administration, FIG. 3C",significantly attenuated tissue catabolism compared to control
same,"tissue catabolism/atrophy/cachexia (bodyweight) induced by LPS, calories controlled","[4]; 10 mg/kg LPS i.p., 4 mL/kg gavage, multiple administrations, FIG. 5A-B",significantly attenuated tissue catabolism/atrophy/cachexia
same,duration for which the anti-catabolic effect was retained,[4]; following 10 mg/kg LPS intraperitoneal,≥ 2 days
